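Values below derive from 48-hour exposures of cells grown in 96-well plates, with endpoints linearly interpolated between the two concentrations bracketing the appropriate inhibition level. At the GI50, growth is halved. TGI marks complete inhibition of growth.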

In the first assay the test system is BT-549 breast. Nature of the assay: NCI anticancer screen, dose series, 48 h.
Take `FC(F)(F)c1ccc(Nc2nc(-c3c(C(F)(F)F)nc4ccccn34)cs2)cc1`: the GI50 is 0.0564 µM and the TGI is 4.02 µM.
Regarding `COc1cc([N+](=O)[O-])c(OC)cc1-c1nc2sc(Cl)cn2c1/C(N)=N/C(=N)N`, the GI50 was 11.4 µM and the TGI turned out to be 47.5 µM.
The corresponding values for `COc1cc(CSc2nc3ccc(C)cc3c(=O)n2-c2ccccc2)cc(OC)c1OC` are 5.28 µM and above 100 µM.
The like results for `CN(CCCn1c2c(c3ccccc3c1=O)C(=O)c1ccccc1-2)CCCn1c2c(c3ccccc3c1=O)C(=O)c1ccccc1-2` were, in that order, 22 µM and 83.1 µM.
Turning to `C(#Cc1ccccc1C#Cc1cccs1)c1cccs1`, the GI50 is above 100 µM and the TGI was above 100 µM.
The compound `COc1ccc(C2=CC(c3ccc4c(c3)OCO4)c3c(c4ccccc4oc3=O)O2)cc1OC` (configuration not stated) showed a TGI above 100 µM.
Take `C=C1C(=O)O[C@H]2[C@H]1CC/C(COC(=O)NCc1cn(C)c3ccccc13)=C\CC[C@@]1(C)O[C@@H]21`: the GI50 is 0.469 µM and the TGI stood at 1.88 µM.
`CC(=O)OCC1OC(n2cnc(C(N)=S)c2N)C(OC(C)=O)C1OC(C)=O` (configuration not stated) registered a TGI above 100 µM.
`Nc1c(C(=O)c2cccc(-c3ccncc3)c2)cnn1-c1ccc(F)cc1F`: the GI50 was 11.1 µM and the TGI was above 25 µM.

In another assay the test system is COLO 205 colon. The experiment in a line: NCI anticancer screen, dose series, 48 h.
`CC(C)(C)c1ccc(Oc2nccc(-c3c(-c4ccc(F)cc4)ncn3C3CCNCC3)n2)cc1`: the GI50 was 3.69 µM and the TGI is 7.46 µM.
`O=C(O)C(/C=C/c1ccccc1)c1ccccc1` (configuration not stated) registered a TGI above 100 µM.
Consider `COc1ccc(-c2cn(-c3cc(OC)c(OC)c(OC)c3)c(SCc3ccccc3)n2)cc1OC`, for which the GI50 was above 100 µM and the TGI was above 100 µM.
Turning to `COc1ccc(-c2nc(-c3nc4ccc(OC)cc4[nH]3)c3ccccn23)cc1`, the GI50 was 7.19 µM and the TGI was determined as 39.7 µM.
The compound `Cc1ccc(S(=O)(=O)N/N=C/c2c(O)ccc3ccccc23)cc1` returned a TGI of 37.4 µM.
For the compound `COc1cc(NC(C)CCCNC2CN3CCC2CC3)c2ncccc2c1` (configuration not stated), the GI50 is 2.58 µM and the TGI stood at 7.16 µM.
As to `CN[C@@H](C)C(=O)N[C@H](C(=O)N1CCC[C@H]1C(=O)Nc1snnc1-c1ccccc1)C1CCCCC1`, the GI50 is 21.6 µM and the TGI turned out to be 42.1 µM.
`FC(F)(F)c1ccc(Nc2nc(-c3c(C(F)(F)F)nc4ccccn34)cs2)cc1`: the GI50 was 0.0323 µM and the TGI is 0.167 µM.
Regarding `COc1cc([N+](=O)[O-])c(OC)cc1-c1nc2sc(Cl)cn2c1/C(N)=N/C(=N)N`, the GI50 is 2.71 µM and the TGI was found to be 6.67 µM.
Take `COc1cc(CSc2nc3ccc(C)cc3c(=O)n2-c2ccccc2)cc(OC)c1OC`: the GI50 is 0.576 µM and the TGI was 3.97 µM.
The corresponding values for `CN(CCCn1c2c(c3ccccc3c1=O)C(=O)c1ccccc1-2)CCCn1c2c(c3ccccc3c1=O)C(=O)c1ccccc1-2` are 1.64 µM and above 45.7 µM.
The like results for `C(#Cc1ccccc1C#Cc1cccs1)c1cccs1` were, in that order, 36.4 µM and above 100 µM.
On to `COc1ccc(C2=CC(c3ccc4c(c3)OCO4)c3c(c4ccccc4oc3=O)O2)cc1OC` (configuration not stated), for which the TGI was above 22.6 µM.
In the case of `CCS(CC)(CC)CC1CCCC2=CCC(P(=O)(c3ccccc3)c3ccccc3)CC21` (configuration not stated), the TGI is 37.4 µM.
Consider `CC(=O)OCC1OC(n2cnc(C(N)=S)c2N)C(OC(C)=O)C1OC(C)=O` (configuration not stated), for which the TGI is above 100 µM.
`Cn1cc(C(=O)NCCC(=N)N)cc1NC(=O)C1=[N+](C)C=C(NC(=O)c2cccc(C(=O)NC3=CC(C(=O)Nc4cc(C(=O)NCCC(=N)N)cn4C)=[N+](C)C3)c2)C1` registered a TGI above 100 µM.
Regarding `Nc1c(C(=O)c2cccc(-c3ccncc3)c2)cnn1-c1ccc(F)cc1F`, the GI50 was 2.09 µM and the TGI is above 21.4 µM.

In the next assay the test system is HOP-92 NSCLC. Nature of the assay: NCI anticancer screen, dose series, 48 h.
`O=C(O)C(/C=C/c1ccccc1)c1ccccc1` (configuration not stated) yielded a TGI above 100 µM.
Consider `COc1ccc(-c2cn(-c3cc(OC)c(OC)c(OC)c3)c(SCc3ccccc3)n2)cc1OC`, for which the GI50 is above 100 µM and the TGI is above 100 µM.
With `COc1ccc(-c2nc(-c3nc4ccc(OC)cc4[nH]3)c3ccccn23)cc1`, the GI50 was 2.31 µM and the TGI was found to be 8.4 µM.
The like results for `COc1cc(NC(C)CCCNC2CN3CCC2CC3)c2ncccc2c1` (configuration not stated) were, in that order, 4.37 µM and 21.8 µM.
As for `CN[C@@H](C)C(=O)N[C@H](C(=O)N1CCC[C@H]1C(=O)Nc1snnc1-c1ccccc1)C1CCCCC1`, the GI50 was 3.06 µM and the TGI is 27.7 µM.
`COc1cc([N+](=O)[O-])c(OC)cc1-c1nc2sc(Cl)cn2c1/C(N)=N/C(=N)N`: the GI50 was 7.06 µM and the TGI is 24 µM.
The corresponding values for `COc1cc(CSc2nc3ccc(C)cc3c(=O)n2-c2ccccc2)cc(OC)c1OC` are 1.03 µM and 8.74 µM.
For `CN(CCCn1c2c(c3ccccc3c1=O)C(=O)c1ccccc1-2)CCCn1c2c(c3ccccc3c1=O)C(=O)c1ccccc1-2`, the GI50 was 0.0671 µM and the TGI turned out to be 1.9 µM.
Compound `COc1ccc(C2=CC(c3ccc4c(c3)OCO4)c3c(c4ccccc4oc3=O)O2)cc1OC` (configuration not stated) came in with a TGI above 100 µM.
Take `C=C1C(=O)O[C@H]2[C@H]1CC/C(COC(=O)NCc1cn(C)c3ccccc13)=C\CC[C@@]1(C)O[C@@H]21`: the GI50 was 1.46 µM and the TGI was 3.05 µM.
With `CCS(CC)(CC)CC1CCCC2=CCC(P(=O)(c3ccccc3)c3ccccc3)CC21` (configuration not stated), the TGI is 16.4 µM.
The same measure, in the same setting: the value for `CC(=O)OCC1OC(n2cnc(C(N)=S)c2N)C(OC(C)=O)C1OC(C)=O` (configuration not stated) was above 100 µM; that for `Cn1cc(C(=O)NCCC(=N)N)cc1NC(=O)C1=[N+](C)C=C(NC(=O)c2cccc(C(=O)NC3=CC(C(=O)Nc4cc(C(=O)NCCC(=N)N)cn4C)=[N+](C)C3)c2)C1` was above 100 µM.
Consider `Nc1c(C(=O)c2cccc(-c3ccncc3)c2)cnn1-c1ccc(F)cc1F`, for which the GI50 was 4.71 µM and the TGI was above 22.9 µM.

The record behind these values is PubChem BioAssay (NCI).
